Measurements taken from PubChem BioAssay (NCI).
Several values for one entry are separate records, joined by “and”; a condition that tells them apart may be missing. Equal values may be shown once.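 A five-concentration, 48-hour dose response in 96-well plates underlies each endpoint, interpolated linearly between surrounding concentrations. GI50 is the concentration that inhibits growth by half. The concentration for full growth arrest is given as TGI.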

Columns and labels:
Assay in all cases: NCI tumour cell line growth inhibition, 48 h
EKVX NSCLC = tested on: EKVX NSCLC
HS 578T breast = tested on: HS 578T breast
MDA-N = tested on: MDA-N
OVCAR-4 ovarian = tested on: OVCAR-4 ovarian
RXF 393 renal = tested on: RXF 393 renal
SNB-19 CNS = tested on: SNB-19 CNS
UACC-257 melanoma = tested on: UACC-257 melanoma
UO-31 renal = tested on: UO-31 renal
MCF7 breast = tested on: MCF7 breast
NCI-H23 lung = tested on: NCI-H23 lung
786-0 renal = tested on: 786-0 renal
KM20L2 colon = tested on: KM20L2 colon

Structure (SMILES): FC(F)(F)C(C1=NC(C(F)(F)F)(C(F)(F)F)N=C(N2CCOCC2)O1)C(F)(F)F
- TGI (EKVX NSCLC): 61.3 µM
- TGI (HS 578T breast): > 100 µM
- TGI (MDA-N): 53.8 µM
- TGI (OVCAR-4 ovarian): 66.1 µM
- TGI (RXF 393 renal): 37 µM
- TGI (SNB-19 CNS): > 100 µM
- TGI (UACC-257 melanoma): 75.3 µM
- TGI (UO-31 renal): > 100 µM

Structure (SMILES): C=CCOC1OC(CS(=O)(=O)O)C(O)C(O)C1O (stereo not given)
- TGI (HS 578T breast): > 100 µM
- TGI (MCF7 breast): > 100 µM
- TGI (MDA-N): > 100 µM
- TGI (NCI-H23 lung): > 100 µM
- TGI (OVCAR-4 ovarian): > 100 µM
- TGI (RXF 393 renal): > 100 µM
- TGI (SNB-19 CNS): > 100 µM
- TGI (UACC-257 melanoma): > 100 µM
- TGI (UO-31 renal): > 100 µM

Structure (SMILES): COc1ccc2oc(=O)cc(C)c2c1
- TGI (786-0 renal): > 100 µM
- TGI (EKVX NSCLC): > 100 µM
- TGI (HS 578T breast): > 100 µM
- TGI (MCF7 breast): > 100 µM
- TGI (MDA-N): > 100 µM
- TGI (NCI-H23 lung): > 100 µM
- TGI (OVCAR-4 ovarian): > 100 µM
- TGI (RXF 393 renal): > 100 µM
- TGI (SNB-19 CNS): > 100 µM
- TGI (UACC-257 melanoma): > 100 µM
- TGI (UO-31 renal): > 100 µM

Structure (SMILES): C=CC(=O)N1CCN(c2nc(OC[C@@H]3CCCN3C)nc3c2CCN(c2cccc4cccc(C)c24)C3)C[C@@H]1CC#N
- GI50 (HS 578T breast): 1.71 µM
- TGI (HS 578T breast): 4.53 µM
- GI50 (NCI-H23 lung): < 0.01 µM
- TGI (NCI-H23 lung): 1.5 µM
- GI50 (SNB-19 CNS): 1.59 µM
- TGI (SNB-19 CNS): 2.99 µM
- GI50 (UACC-257 melanoma): 1.79 µM
- TGI (UACC-257 melanoma): 3.74 µM
- GI50 (UO-31 renal): 1.28 µM
- TGI (UO-31 renal): 2.54 µM

Structure (SMILES): Cc1ccc2cc3c(ccc4ccccc43)c3c2c1CC3
- TGI (786-0 renal): > 100 µM
- TGI (EKVX NSCLC): > 100 µM
- TGI (HS 578T breast): > 100 µM
- TGI (MCF7 breast): > 18.3 µM
- TGI (MDA-N): > 100 µM
- TGI (NCI-H23 lung): > 100 µM
- GI50 (OVCAR-4 ovarian): > 100 µM
- TGI (OVCAR-4 ovarian): > 100 µM
- TGI (RXF 393 renal): > 100 µM
- TGI (SNB-19 CNS): > 100 µM
- TGI (UACC-257 melanoma): > 100 µM
- TGI (UO-31 renal): > 100 µM

Structure (SMILES): CCCCCCCCCCCCCCCC[N+](C)(C)CCN(Cc1ccc(OC)cc1)c1ncccn1
- GI50 (EKVX NSCLC): 1.89 µM
- TGI (EKVX NSCLC): 7.52 µM
- GI50 (HS 578T breast): 1.76 µM
- TGI (HS 578T breast): 4.4 µM
- GI50 (OVCAR-4 ovarian): 1.85 µM
- TGI (OVCAR-4 ovarian): 4.88 µM
- GI50 (RXF 393 renal): 1.52 µM and 0.821 µM
- TGI (RXF 393 renal): 3.49 µM and 2.43 µM
- GI50 (UACC-257 melanoma): 5.65 µM
- TGI (UACC-257 melanoma): 39.8 µM
- GI50 (UO-31 renal): 5.65 µM
- TGI (UO-31 renal): 52.9 µM

Structure (SMILES): O=C(O)CSCC(=O)O
- TGI (786-0 renal): > 100 µM
- TGI (EKVX NSCLC): > 100 µM
- TGI (HS 578T breast): > 100 µM
- TGI (MDA-N): > 100 µM
- TGI (NCI-H23 lung): > 100 µM
- TGI (OVCAR-4 ovarian): > 100 µM
- TGI (RXF 393 renal): > 100 µM
- TGI (SNB-19 CNS): > 100 µM
- TGI (UACC-257 melanoma): > 100 µM
- TGI (UO-31 renal): > 100 µM

Structure (SMILES): CS/C(=N\C(=S)Nc1ccccc1)Nc1ccccc1
- TGI (KM20L2 colon): > 100 µM
- TGI (NCI-H23 lung): > 100 µM
- TGI (OVCAR-4 ovarian): > 100 µM
- TGI (RXF 393 renal): 48.4 µM
- TGI (SNB-19 CNS): 94.6 µM
- TGI (UO-31 renal): 43.1 µM

Structure (SMILES): Cc1nc(Nc2ccc(F)cc2)c2sc(=S)n(-c3ccc(F)cc3)c2n1
- TGI (786-0 renal): 21.6 µM
- TGI (EKVX NSCLC): 26.2 µM
- TGI (HS 578T breast): 37.7 µM
- TGI (MCF7 breast): 18.7 µM
- TGI (NCI-H23 lung): 16.9 µM
- TGI (OVCAR-4 ovarian): 40.8 µM
- TGI (RXF 393 renal): 25.1 µM
- TGI (SNB-19 CNS): 27.8 µM
- TGI (UACC-257 melanoma): 26.2 µM
- TGI (UO-31 renal): 30.1 µM

Structure (SMILES): COc1cc2nc(-c3cccs3)nc(N3C(c4ccc(O)cc4)=NNC(=O)c4ccccc43)c2cc1OC
- TGI (786-0 renal): > 100 µM
- TGI (EKVX NSCLC): 75.6 µM
- TGI (HS 578T breast): > 100 µM
- TGI (MCF7 breast): > 100 µM
- TGI (NCI-H23 lung): 78.1 µM
- TGI (OVCAR-4 ovarian): > 100 µM
- TGI (RXF 393 renal): 39.6 µM
- TGI (SNB-19 CNS): > 100 µM
- TGI (UACC-257 melanoma): 84.9 µM
- TGI (UO-31 renal): 37.4 µM

Structure (SMILES): Nc1ccc2nc3ccc(N)cc3[n+](-c3ccccc3)c2c1
- TGI (786-0 renal): > 100 µM
- TGI (EKVX NSCLC): > 100 µM
- TGI (HS 578T breast): > 100 µM
- TGI (MCF7 breast): > 100 µM
- TGI (MDA-N): > 100 µM
- TGI (NCI-H23 lung): > 100 µM
- TGI (OVCAR-4 ovarian): > 100 µM
- TGI (RXF 393 renal): > 100 µM
- TGI (SNB-19 CNS): > 100 µM
- TGI (UACC-257 melanoma): 68 µM
- TGI (UO-31 renal): > 100 µM

Structure (SMILES): COc1cc(-c2c(C#N)c(N)c(C#N)c3c2COc2ccccc2-3)cc(OC)c1OC
- TGI (EKVX NSCLC): > 69.4 µM
- TGI (HS 578T breast): 39.7 µM
- TGI (MCF7 breast): > 100 µM
- TGI (MDA-N): > 100 µM
- TGI (NCI-H23 lung): > 60.8 µM
- TGI (OVCAR-4 ovarian): > 64.8 µM
- TGI (RXF 393 renal): 34.4 µM
- TGI (SNB-19 CNS): > 43.5 µM
- TGI (UACC-257 melanoma): > 100 µM
- TGI (UO-31 renal): > 69.8 µM

Structure (SMILES): COc1ccc(C2C(=O)C(Cl)N2Nc2nc(C)cc(=O)[nH]2)cc1OC (stereo not given)
- TGI (EKVX NSCLC): > 100 µM
- TGI (KM20L2 colon): > 100 µM
- TGI (NCI-H23 lung): > 100 µM
- TGI (OVCAR-4 ovarian): > 100 µM
- TGI (RXF 393 renal): > 100 µM
- TGI (SNB-19 CNS): > 100 µM
- TGI (UACC-257 melanoma): > 100 µM
- TGI (UO-31 renal): > 100 µM

Structure (SMILES): CC(=O)Oc1ccc2c(C)cc(=O)oc2c1
- TGI (786-0 renal): > 100 µM
- TGI (EKVX NSCLC): > 100 µM
- TGI (HS 578T breast): > 100 µM
- TGI (MCF7 breast): > 100 µM
- TGI (MDA-N): > 100 µM
- TGI (NCI-H23 lung): > 100 µM
- TGI (OVCAR-4 ovarian): > 100 µM
- TGI (RXF 393 renal): > 100 µM
- TGI (SNB-19 CNS): > 100 µM
- TGI (UACC-257 melanoma): > 100 µM
- TGI (UO-31 renal): > 100 µM

Structure (SMILES): Nc1ccc(C2NC(=O)Cc3c2ccc2ccccc32)cc1 (stereo not given)
- TGI (EKVX NSCLC): > 100 µM
- TGI (HS 578T breast): > 100 µM
- TGI (MCF7 breast): > 100 µM
- TGI (MDA-N): > 100 µM
- TGI (NCI-H23 lung): > 100 µM
- TGI (OVCAR-4 ovarian): > 100 µM
- TGI (SNB-19 CNS): > 100 µM
- TGI (UACC-257 melanoma): > 100 µM
- TGI (UO-31 renal): > 100 µM

Structure (SMILES): NC(=O)NO
- TGI (786-0 renal): 1770 µM
- TGI (EKVX NSCLC): > 2460 µM
- TGI (HS 578T breast): > 1220 µM
- TGI (KM20L2 colon): 1700 µM
- TGI (MCF7 breast): > 2460 µM
- TGI (MDA-N): > 2500 µM
- TGI (NCI-H23 lung): 2050 µM
- TGI (OVCAR-4 ovarian): > 2500 µM
- TGI (RXF 393 renal): 1880 µM
- TGI (SNB-19 CNS): > 2340 µM
- TGI (UACC-257 melanoma): > 2500 µM
- TGI (UO-31 renal): 1870 µM

Structure (SMILES): COc1cccc(Nc2nc(-c3cccs3)nc3ccc(Br)cc23)c1
- TGI (786-0 renal): > 100 µM
- TGI (EKVX NSCLC): > 100 µM
- TGI (HS 578T breast): > 100 µM
- TGI (MCF7 breast): 63.8 µM
- TGI (NCI-H23 lung): > 100 µM
- TGI (SNB-19 CNS): 78.7 µM
- TGI (UACC-257 melanoma): > 100 µM
- TGI (UO-31 renal): > 100 µM

Structure (SMILES): COc1ccccc1N1C(Cl)C(=O)C1c1c[nH]c2ccccc12 (stereo not given)
- TGI (EKVX NSCLC): > 100 µM
- TGI (KM20L2 colon): > 100 µM
- TGI (NCI-H23 lung): > 100 µM
- TGI (OVCAR-4 ovarian): > 100 µM
- TGI (RXF 393 renal): > 100 µM
- TGI (SNB-19 CNS): > 100 µM
- TGI (UACC-257 melanoma): > 100 µM
- TGI (UO-31 renal): > 100 µM

Structure (SMILES): O=C(O)C(O)Cc1ccccn1 (stereo not given)
- TGI (EKVX NSCLC): > 100 µM
- TGI (HS 578T breast): > 100 µM
- TGI (MCF7 breast): > 100 µM
- TGI (NCI-H23 lung): > 100 µM
- TGI (OVCAR-4 ovarian): > 100 µM
- TGI (RXF 393 renal): > 100 µM
- TGI (SNB-19 CNS): > 100 µM
- TGI (UACC-257 melanoma): > 100 µM
- TGI (UO-31 renal): > 100 µM

Structure (SMILES): N=C(N)C(N=Nc1ccccc1)C(N)=O (stereo not given)
- TGI (786-0 renal): > 100 µM
- TGI (EKVX NSCLC): > 100 µM
- TGI (HS 578T breast): > 100 µM
- TGI (MCF7 breast): > 100 µM
- TGI (MDA-N): > 100 µM
- TGI (NCI-H23 lung): > 100 µM
- TGI (OVCAR-4 ovarian): > 100 µM
- TGI (RXF 393 renal): > 100 µM
- TGI (SNB-19 CNS): > 100 µM
- TGI (UACC-257 melanoma): > 100 µM
- TGI (UO-31 renal): > 100 µM
